Measurements taken from patent publication EP0519976B1, “NEUTROPHIL STIMULATING PEPTIDES” (PEPTIDE TECHNOLOGY LTD, priority 1990, dated 1991).

System: Purified human neutrophils
Assay: Lucigenin dependent chemiluminescence assay (neutrophil respiratory burst / priming for F-met-leu-phe response)
Format: cell-based
Details: fMLP alone
Procedure: Purified human neutrophils were pretreated with peptide for 20 minutes before the addition of f-met-leu-phe. The lucigenin dependent chemiluminescence response, which reflects superoxide production, was then measured. The results obtained are set out in Table 2 and are expressed as mV of lucigenin dependent chemiluminescence and represent the maximal cell activity attained.
This experiment was repeated with peptides 304, 308 and 309.
The experiment was also conducted using peptides 393, 394, 395 and 396. […]
Results are expressed as mV of lucigenin dependent chemiluminescence and respresent peak of response i.e. the maximal cell activity attained.

`CSCC[C@H](NC=O)C(=O)N[C@@H](CC(C)C)C(=O)N[C@@H](Cc1ccccc1)C(=O)O` [fMLP, N-formyl-L-methionyl-L-leucyl-L-phenylalanine] showed a Chemiluminescence (Exp. 1) of 1.53 mV, a Chemiluminescence (Exp. 2) of 3.53 mV and a Chemiluminescence (Exp. 3) of 1.96 mV.
